Tests used:
[1] = system: β-GlcNAc:β1,4Gal-T of colon tumor CC9338; assay: β-GlcNAc:β1,4Gal-T assay, colon tumor extract; assay type: biochemical, human
Protocol: (§1) Colon tumor tissue (CC9338) and breast tumor tissue (BC9400) were obtained during surgical procedures at Roswell Park Cancer Institute and stored frozen within 1 h at −70° C. The tissues were homogenized at 4° C. with 4 volumes of 0.1M Tris Maleate […] 0.1% NaN3 using kinematica. After adjusting the concentration of Triton X-100 to 2%, these homogenates were mixed in the cold room for 1 h using Speci-Mix (Thermolyne) and then centrifuged at 20,000 g for 1 h at 4° C. The clear fat-free supernatant was stored frozen at −20° C. until use. Aliquots of 10 μL from this extract were used in assays run in duplicates. Glycosyltransferase activity in cell lysate was determined by mixing the lysates with acceptor and radiolabeled donor (monosaccharide) under the reaction conditions detailed below, followed by separation of un-reacted donor from the radioactive product using anionic or hydrophobic chromatography. In all cases, the radioactive content of isolated products was determined by using 3a70 scintillation cocktail (Research Products International, Mount Prospect, Ill.) and a Beckman LS6500 scintillation counter. Controls for each assay contained the reaction mixture with everything except the acceptor. All assays were run in duplicate.
(§2) The acceptors used for measuring the glycosyltransferase and sulfotransferase activities are given in Table I. The following are the conditions for individual enzymatic assays. Reaction temperature in all cases was 37° C. α2,3- and α2,6 sialytransferase (ST) assay reactions proceeded for 2 h in a mixture containing 100 mM sodium cacodylate buffer (pH 6.0), 7.5 mM acceptor, CMP-[9-^3H]NeuAc (typically 0.2 μCi) and 10 μl cell extract in a total volume of 20 μl [Chandrasekaran et al., 1995]. βGlcNAc:β1,4Gal-T and αGalNAc:β1,3Gal-T assay mixtures in duplicate contained 0.1M Hepes-NaOH pH 7.0, 7 mM ATP, 20 mM Mn acetate, 1 mM UDP-Gal, UDP [^14C]Gal (0.05 μCi; 327mCi/mmol; Amersham), 0.5 mM acceptor (unless otherwise stated) and the enzyme in a total volume of 20 μL. It was incubated for 4 h [Chandrasekaran et al., 2001]. βGlcNAc:β1,4GalNAc-T assay mixtures in duplicate contained 0.1M Hepes-NaOH pH 7.0, 7 mM ATP, 20 mM Mn acetate. UDP [^3H] GalNAc (0.20 μCi; 7.8 Ci/mmol: New England Nuclear Corp.) 7.5 mM acceptor (unless otherwise stated) and the enzyme in a total volume of 20 μL and incubated for 4 h [Chandrasekaran et al., 2001].
(§3) Dowex-1-C1 or Sep-Pak C18 cartridges were used to isolate radiolabeled product from the reaction mixture. For GalT, GalNAc-T and FT assays, the incubation mixture was diluted with 1 ml water and passed through a 1 ml Dowex-1-C1 column [Chandrasekaran et al., 1996; Chandrasekaran et al., 2001]. The column was washed twice with 1 ml of water. The breakthrough and the water wash contained the [^14C]-galactosylated or [^14C]-fucosylated products formed with neutral acceptors. 3 ml of 0.1M NaCl was used to obtain [^14C]-fucosylated products from sialylated acceptors after water elution. For sialytransferase assays, the radioactive products from benzylglycosides were separated by hydrophobic chromatography on Sep-Pak C18 cartridge (Waters, Milford, Mass.), and elution of the product was done with 3 ml methanol [Palcic et al., 1988]. For sulfotransferase assays, elution of the [^35S]-sulfated compound from Dowex-1-C1 column was achieved by 3 ml of 0.2M NaCl [Chandrasekaran et al., 2004].

[2] = system: β-GlcNAc:β1,4Gal-T of breast tumor BC9400; assay: β-GlcNAc:β1,4Gal-T assay, breast tumor extract; assay type: biochemical, human
Protocol: as §1, §2, §3

[3] = system: β-GlcNAc:β1,4GalNAc-T of colon tumor CC9338; assay: β-GlcNAc:β1,4GalNAc-T assay, colon tumor extract; assay type: biochemical, human
Protocol: as §1, §2, §3

[4] = system: β-GlcNAc:β1,4GalNAc-T of breast tumor BC9400; assay: β-GlcNAc:β1,4GalNAc-T assay, breast tumor extract; assay type: biochemical, human
Protocol: as §1, §2, §3

Siglec 4 (MAG) = settings: Blixt et al. (49); cited from earlier work
human FTVII = target: T1, human FTVII (Homo sapiens, UniProt Q11130); assay: [14C]Fuc transfer by FTVII from extracts of transfected COS-7 cells; assay type: biochemical; settings: extracts of COS-7 cells transfected with FTVII cDNA; unpublished results
T1 construct: expressed in transfected cells; host or cells: COS-7
T1 sequence (Q11130 whole entry): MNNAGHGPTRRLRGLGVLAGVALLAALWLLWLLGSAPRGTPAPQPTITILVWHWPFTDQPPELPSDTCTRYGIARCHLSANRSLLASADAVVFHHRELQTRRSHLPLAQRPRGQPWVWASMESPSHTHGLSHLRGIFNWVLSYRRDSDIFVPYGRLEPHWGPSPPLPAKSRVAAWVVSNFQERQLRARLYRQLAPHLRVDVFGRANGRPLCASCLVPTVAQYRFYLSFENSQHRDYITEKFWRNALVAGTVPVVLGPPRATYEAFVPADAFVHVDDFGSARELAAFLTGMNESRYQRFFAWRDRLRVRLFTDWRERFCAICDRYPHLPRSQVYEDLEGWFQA
Source text: The sialylation steps in this reaction scheme were validated by analyzing reaction products using mass spectroscopy (Table VI).

[5] = Gal-T activity with the same acceptor = 100.0%
[6] = other acceptors, 1 mg protein of the tissue extract
[7] = relative to Gal-T activity with the same acceptor

Structure (SMILES): C=CCO[C@H]1O[C@H](CO[C@@H]2O[C@H](CO)[C@@H](O)[C@H](O)[C@H]2NC(C)=O)[C@@H](O)[C@H](O)[C@@H]1O [GlcNAcβ1,6Manα-O—Al]
- a) β-GlcNAc:β1,4Gal-T activity, percent in parentheses [1, 5]: 100.0%
- a) β-GlcNAc:β1,4Gal-T activity: incorporation of radioactive sugar [1, 6]: 493.4 CPM × 10^−3
- a) β-GlcNAc:β1,4Gal-T activity, percent in parentheses [2, 5]: 100.0%
- a) β-GlcNAc:β1,4Gal-T activity: incorporation of radioactive sugar [2, 6]: 443.6 CPM × 10^−3
- b) β-GlcNAc:β1,4GalNAc-T activity: incorporation of radioactive sugar [3, 6]: 54.5 CPM × 10^−3
- b) β-GlcNAc:β1,4GalNAc-T activity, percent in parentheses [3, 7]: 11.0%
- b) β-GlcNAc:β1,4GalNAc-T activity: incorporation of radioactive sugar [4, 6]: 99.2 CPM × 10^−3
- b) β-GlcNAc:β1,4GalNAc-T activity, percent in parentheses [4, 7]: 22.4%

Structure (SMILES): CC(=O)NC1C(O)CC(OCC2OC(OC(C)C(N)C(=O)O)C(NC(C)=O)C(OC3OC(CO)C(O)C(OC4(C(=O)O)CC(O)C(NC(C)=O)C(C(O)C(O)CO)O4)C3O)C2O)(C(=O)O)OC1C(O)C(O)CO (stereo not drawn) [NeuAcα2,3Galβ1,3(NeuAcα2,6)GalNAcα-O-Thr, NeuAcα2,3Galβ1,3 (NeuAcα2,6)GalNAcα-O-Thr]
- fold more potent than NeuAcα2,6GalNAcα-O-Thr in inhibiting Siglec 4 (MAG) binding (Siglec 4 (MAG)): 3,000 fold

Structure (SMILES): CC(=O)NC1C(O)CC(OC2C(O)C(CO)OC(OC3C(O)C(CO)OC(OC(C)C(N)C(=O)O)C3NC(C)=O)C2O)(C(=O)O)OC1C(O)C(O)CO (stereo not drawn) [NeuAcα2,3Galβ1,3GalNAcα-O-Thr]
- fold more potent than NeuAcα2,6GalNAcα-O-Thr in inhibiting Siglec 4 (MAG) binding (Siglec 4 (MAG)): 600 fold

Structure (SMILES): CO[C@@H]1O[C@H](COS(=O)(=O)O)[C@@H](O[C@@H]2O[C@H](CO)[C@H](O)[C@H](O[C@@H]3O[C@H](COS(=O)(=O)O)[C@@H](O[C@@H]4O[C@H](CO)[C@H](O)[C@H](O[C@]5(C(=O)O)C[C@H](O)[C@@H](NC(C)=O)[C@H]([C@H](O)[C@H](O)CO)O5)[C@H]4O)[C@H](O)[C@H]3NC(C)=O)[C@H]2O)[C@H](O)[C@H]1NC(C)=O [NeuAcα2,3Galβ1,4(6-O-Sulfo)GlcNAcβ1,3Galβ1,4(6-O-Sulfo)GlcNAcβ-O-Me]
- transfer of [14C]Fuc to the acceptor (human FTVII): efficiently transferring

Structure (SMILES): CC(=O)NC1C(O)CC(OCC2OC(OC(C)C(N)C(=O)O)C(NC(C)=O)C(OC3OC(CO)C(O)C(O)C3O)C2O)(C(=O)O)OC1C(O)C(O)CO (stereo not drawn) [NeuAcα2,6(Galβ1,3)GalNAcα-O-Thr]
- fold more potent than NeuAcα2,6GalNAcα-O-Thr in inhibiting Siglec 4 (MAG) binding (Siglec 4 (MAG)): 100 fold

From patent publication US20100221763A1, “Specific Acceptors for Transferases to Saccharides and Method for Obtaining and Using Same” (Health Research, Inc, priority 2005, published 2010)
